Laboratory results: patent US5886026A, “Anti-angiogenic compositions and methods of use” (priority 1994, dated 1999)

Tests used:
[1] = tested on: chick chorioallantoic membrane (CAM); assay: Chick chorioallantoic membrane (CAM) assay, paclitaxel in methylcellulose disks; format: in vivo
Excerpt: As noted above, the present invention provides methods and compositions which utilize anti-angiogenic factors. Briefly, within the context of the present invention, anti-angiogenic factors should be understood to include any protein, peptide, chemical, or other molecule, which acts to inhibit vascular growth. A variety of methods may be readily utilized to determine the anti-angiogenic activity of a given factor, including for example, chick chorioallantoic membrane ("CAM") assays. Briefly, as described in more detail below in Examples 2A and 2C, a portion of the shell from a freshly fertilized chicken egg is removed, and a methyl cellulose disk containing a sample of the anti-angiogenic factor to be tested is placed on the membrane. After several days (e.g., 48 hours), inhibition of vascular growth by the sample to be tested may be readily determined by visualization of the chick chorioallantoic membrane in the region surrounding the methyl cellulose disk. Inhibition of vascular growth may also be determined quantitatively, for example, by determining the number and size of blood vessels surrounding the methyl cellulose disk, as compared to a control methyl cellulose disk.
Fertilized, domestic chick embryos were incubated for 3 days prior to shell-less culturing. […] These were then placed into an incubator at 90% relative humidity and 3% CO2 and incubated for 3 days.
The membranes of the 8 day-old shell-less embryo were flooded with 2% glutaraldehyde in 0.1M Na cacodylate buffer; additional fixative was injected under the CAM. After 10 minutes in situ, the CAM was removed and placed into fresh fixative for 2 hours at room temperature. The tissue was then washed overnight in cacodylate buffer containing 6% sucrose. The areas of interest were postfixed in 1% osmium tetroxide for 1.5 hours at 4° C. The tissues were then dehydrated in a graded series of ethanols, solvent exchanged with propylene oxide, and embedded in Spurr resin. Thin sections were cut with a diamond knife, placed on copper grids, stained, and examined in a Joel 1200EX electron microscope. Similarly, […] sections were cut and stained with toluene blue for light microscopy.
This imaging setup was used at a magnification of 160 times which permitted the direct visualization of blood cells within the capillaries; thereby blood flow in areas of interest could be easily assessed and recorded. […] This scale represents the degree of overall inhibition with maximal inhibition represented as a 3 on the avascular gradient scale.

[2] = Release from ELVAX:poly-l-lactic acid microspheres, 18 hours tumbling at 37° C.; format: physicochemical
[3] = tested on: neutrophils; assay: Neutrophil degranulation, myeloperoxidase release; format: cell-based, human; conditions: 28 μM, CPPD
Experimental: (§1) All experiments that studied neutrophil responses to crystals or zymosan in the presence of paclitaxel were performed using plasma opsonized CPPD or zymosan. Opsonization of crystals or zymosan was done with 50% heparinized plasma at a concentration of 75 mg of CPPD or 12 mg of zymosan per ml of 50% plasma. Crystals or zymosan were incubated with plasma for 30 min. at 37° C. and then washed in excess HBSS.
(§2) One and a half milliliter Eppendorf tubes containing either 25 mg of CPPD or 1 mg of zymosan were preheated to 37° C. 0.5 ml of cells at 37° C. were added followed by vigorous shaking to initiate the reactions.
Myeloperoxidase (MPO) activity was measured by the increase in absorbance at 450 nm that accompanies the oxidation of dianisidine. 7.8 mg of dianisidine was dissolved in 100 ml of 0.1M citrate buffer, pH 5.5 at […] by sonication. To a 1 ml cuvette, 0.89 mL of the dianisidine solution was added, followed by 50 μl of 1% Triton×100, 10 μl of a 0.05% hydrogen peroxide in water solution and 50 μl of crystal-cell supernatant.

[4] = tested on: neutrophils; assay: Neutrophil degranulation, lysozyme release; format: cell-based, human; conditions: 28 μM, CPPD
Experimental: as §1, §2
Briefly, Micrococcuis lysodeikticzis was suspended at 0.1 mg/ml in 65 mM potassium phosphate buffer, pH 6.2 and the absorbance at 450 nm was adjusted to 0.7 units by dilution. The crystal (or zymosan) and cell supernatant (100 μl) was added to 2.5 ml of the Micrococcus suspension and the decrease in absorbance was monitored.

[5] = tested on: synoviocytes; assay: 3H-Thymidine incorporation into synoviocytes; format: cell-based
Experimental: At these times, […] of ^3 H-thymidine was added to the cell culture and incubated for 2 hours at 37° C. The cells were placed through a cell harvester, washed through a filter, the filters were cut, and the amount of radiation contained in the filter sections determined. Once the amount of thymidine incorporated into the cells was ascertained, it was used to determine the rate of cell proliferation. This experiment was repeated three times and the data collated together.

[6] = tested on: synovial fibroblasts; assay: Synoviocyte proliferation (Trypan blue); format: cell-based, bovine; conditions: 24 hours
[7] = tested on: c-fos; assay: c-fos expression in chondrocytes (Northern blot); format: cell-based, bovine; conditions: 10^-6 to 10^-8 M
Experimental: Human recombinant TNFα was dissolved in phosphate buffered saline (PBS) with 0.1% bovine serum albumin (BSA). Total RNA from bovine articular chondrocytes was isolated by the acidified guanidine isothiocyanate method and the levels of c-fos mRNA determined by Northern blot analysis. Denatured RNA samples (12 μg) were analyzed by gel electrophoresis in a denaturing 1% agarose gel, transferred to a nylon membrane (Bio-Rad), cross-linked with an ultraviolet cross-linker (Stratagene UV stratalinker 1800), and hybridized with ^32 P-labeled rat c-fos DNA. mRNA for tubulin and total RNA were used as controls. To determine tubulin mRNA, the blots described above were subsequently stripped of DNA and re-probed with ^32 P-labeled rat P-tubulin cDNA. This experimented was conducted three times and the data collated.

[8] = tested on: collagenase; assay: IL-1 induced collagenase expression in chondrocytes (Northern blot); format: cell-based, bovine; conditions: 10^-6 M
Experimental: C-fos is an oncogene transcription factor shown to be involved and required for the induction of genes involved in cell proliferation and collagenase expression. […] When IL-1 is administered to chondrocytes in vitro there is a transient increase in fos mRNA levels which peak 30-60 minutes later, while collagenase mRNA is detected 9 hours later and continues to increase up to 12 hours (data not shown) after IL-1 stimulation. The fos and collagenase mRNA can be detected using the respective cDNA probes and analyzed by Northern blot analysis. This allows the determination of agents capable of inhibiting collagenase production and an approximation of the step in the collagenase synthetic pathway that is affected by the treatment.
The cells were then incubated for a further 16 hours. Total RNA from bovine articular chondrocytes was isolated by the acidified guanidine isothiocyanate method and the collagenase mRNA determined by Northern blot analysis. The RNA samples were prepared as described above using ^32 P-labeled rat collagenase cDNA.

[9] = in vitro; conditions: human, neutrophils
Experimental: (§3) Neutrophils were prepared from freshly collected human citrated whole blood. Briefly, 400 ml of blood were mixed with 80 ml of 4% dextran T500 (Pharmacia LKB, Biotechnology AB Uppsala, Sweden) in HBSS and allowed to settle for 1 h. Plasma was collected continuously and 5 ml applied to 5 ml of Ficoll Paque (Pharmacia) in 15 ml polypropylene tubes (Coming, N.Y.). Following centrifugation at 500×g for 30 min, the neutrophil pellets were washed free of erythrocytes by 20 s of hypotonic shock. Neutrophils were resuspended in HBSS, kept on ice and used for experiments within 3 h. Neutrophil viability and purity was always greater than 90%.
(§4) Cells were incubated for 20 minutes at 33° C. then for 10 minutes at 37° C. before addition to crystals or zymosan.

[10] = tested on: neutrophils; assay: Neutrophil viability (LDH release); conditions: 46 μM, one hour, 37° C.
Experimental: as §3, §4

CC(=O)O[C@H]1C(=O)[C@@]2(C)[C@H]([C@H](OC(=O)c3ccccc3)[C@]3(O)C[C@H](OC(=O)[C@H](O)[C@@H](NC(=O)c4ccccc4)c4ccccc4)C(C)=C1C3(C)C)[C@]1(OC(C)=O)CO[C@@H]1C[C@@H]2O [paclitaxel]
avascular zone diameter ([1]; 48 h exposure, 10μ paclitaxel per 10 ml methylcellulose): 6 mm | inhibition of angiogenesis ([1]; 48 hours after application): angiogenesis was inhibited | cells arrested in mitosis in avascular zones ([1]; CAM histology): abundance of cells arrested in mitosis in all three germ layers | onset of inhibition of angiogenesis ([1]; after application): 9 h | time without revascularization of avascular zone ([1]; after application): at least 7 days | avascular gradient scale ([1]; within 48 hours, depending on concentration): 3 (avascularity extending beyond the disk (6 mm in diameter)) | avascular zone diameter ([1]; within 48 hours, methylcellulose disks): 6 mm | released from the microspheres ([2]; fluorescence): 6% | released from the microspheres ([2]; uv/vis): 10.3% | myeloperoxidase release [3]: significantly inhibited CPPD induced myeloperoxidase release at all times | lysozyme release [4]: reduced lysozyme release | minimal effective concentration ([5]; 6 or 24 hours, read-out: lowest concentration inhibiting 3H-thymidine incorporation): ≤ 0.01 µM | inhibition of thymidine incorporation, high vs low concentrations ([5]; 6 hours): no significant difference | inhibition of thymidine incorporation at low concentration ([5]; 24 hours, 10^-8 M): some of the effect was lost at lower concentrations of the drug (10^-8 M), but was still substantially lower than that seen in control animals | toxicity to synovial fibroblasts ([6]; 10^-6 M and 10^-5 M): toxic to the synovial fibroblasts in vitro | cytotoxicity to proliferating synovial fibroblasts [6]: cytotoxic to proliferating synovial fibroblasts in a concentration dependent manner | minimal effective concentration ([6]; Bos taurus, Fibroblast, read-out: lowest concentration inhibiting proliferation): ≤ 0.1 µM | total RNA and tubulin expression [7]: similarly unaffected | c-fos expression ([7]; TNF stimulated): does not alter c-fos expression at any concentration | collagenase mRNA [8]: not detectable above background | inhibition of IL-1 induced collagenase expression [8]: completely inhibited | cytotoxicity at 1 h, 46 µM [9]: < 5% | cell death [10]: did not cause cell death
